Source: patent US6989364B1, “Methods for treating cardiac hypertrophy by administering IFN-γ” (Genentech, Inc., priority 1998, dated 2006)

Columns and labels:
[1] = system: adult rat cardiac myocytes; experiment: Inhibition of PGF2α-induced spreading response of adult myocytes; assay type: cell-based
Method: Myocytes were pre-incubated with saline vehicle or IFN-γ (500 U/ml) on day of isolation. A second addition of vehicle or IFN-γ was performed 24h after isolation, along with the addition of either vehicle or PGF2α (10^−7 M). After an additional 72 hr incubation, cells were fixed in glutaraldehyde, stained with eosin Y and viewed by fluorescence microscopy. A, B, C Cardiac myocytes after 4 days in culture: control, PGF2α, and PGF2α+IFN-γ, respectively. D, E, F Histographs showing maximum breadth of rod shaped cardiac myocytes versus percent frequency of breadth occurrence. The maximum breadth of rod-shaped cells was determined by fluorescence microscopy and imaging software. At least 200 rod shaped cells from a single experiment were examined per group.
Myocytes were pre-incubated with saline vehicle or IFN-γ on day of isolation. A second amount of IFN-γ was added 24 hr after isolation, along with the addition of either vehicle or PGF2α (10^−7 M). After an additional 72 hr incubation, cells were fixed in glutaraldehyde, stained with eosin Y and viewed under fluorescence. Quantitation of myocyte morphology: A control, B PGF2α, C PGF2α+IFN-γ (25 U/ml), D PGF2α+IFN-γ (100 U/ml), E PGF2α+IFN-γ (500 U/ml). Histographs showing maximum breadth of rod shaped cardiac myocytes versus percent frequency of breadth occurrence. The maximum breadth of rod-shaped cells was determined by fluorescence microscopy and imaging software. At least 200 rod shaped cells from a single experiment were examined per group.
In this assay, ventricular myocytes are isolated from a single (male Sprague-Dawley) rat, essentially following a modification of the procedure described in detail by Piper et al., “Adult ventricular rat heart muscle cells.” In: Cell Culture Techniques in Heart and Vessel Research, H. M. Piper, ed., Berlin: Spinger-Verlag, 1990, pp. 36–60. This procedure permits the isolation of adult ventricular myocytes and the long-term culture of these cells in the rod-shaped phenotype. […] Piper et al., supra; Lai et al., Am J. Physiol. 1996; 271 (Heart Circ. Phvsiol. 40):H2197–H2208. The inhibition of myocyte spreading induced by PGF2α, or PGF2α analogs, (e.g. fluprostenol) and phenylephrine by various potential inhibitors of cardiac hypertrophy is then tested. A detailed protocol is described in the examples that follow.
Adult myocyte cultures The procedure used for the isolation of ventricular myocytes from adult rats was a modification of a procedure described by Piper et al., supra, and is detailed in Lai et al., supra. For each myocyte preparation, one male Sprague-Dawley rat weighing about 250 g was anesthetized with pentobarbital sodium, and the heart was removed. Extraneous tissue was trimmed from the heart, and it was mounted onto a Langendorff system that was temperature controlled at 37° C. The heart was perfused with about 40 ml of Krebs buffer (110 mM NaCl, 2.6 mM KCl, 1.2 mM KH2PO4, 1.2 mM MgSO4.7H2O, 25 mM NaHCO3 and 11 mM glucose). A solution containing 30 mg of collagenase and 12.5 μl of 100 mM CaCl2 in 50 ml of Krebs buffer was then recirculated through the heart for 30 minutes. The heart was removed from the Langendorff apparatus, and the atria and connective tissues were removed. The ventricles were cut into 2 mm cubes with dissecting scissors, and further digested in a fresh collagenase solution (30 mg collagenase and 400 mg BSA dissolved in Krebs buffer with 12.5 μl of 100 mM CaCl2) for five minutes at 37° C. During the digestion, the tissue suspension was gently band shaken one time per minute. After the digestion, the supernatant was removed and saved, and the remaining tissue was further digested in fresh collagenase solution for an additional five minutes.

[2] = system: male Sprague/Dawley (SD) rats; conditions: s.c. twice a day; previous study, Lai et al.; cited from earlier work
[3] = system: male Sprague/Dawley (SD) rats; experiment: Cardiac hypertrophy induced by fluprostenol in vivo: body and organ weights; design: species or system rat
Excerpt: This pharmacological model tests the ability of IFN-γ to inhibit cardiac hypertrophy induced in rats (e.g. male Wistar or Sprague-Dawley) by subcutaneous injection of fluprostenol (an agonist analog of PGF2α). It is known that rats with pathologic cardiac hypertrophy induced by myocardial infarction have chronically elevated levels of extractable PGF2α in their myocardium. Lai et al, Am. J. Physiol. (Heart Circ. Physiol.) 271:H2197–H2208 (1996). Accordingly, factors that can inhibit the effects of fluprostenol on myocardial growth in vivo are potentially useful for treating cardiac hypertrophy. The effects of IFN-γ on cardiac hypertrophy are determined by measuring the weight of heart, ventricles, and left ventricle (normalized by body weight) relative to fluprostenol-treated rats not receiving IFN-γ. A detailed description of this assay is provided in the examples.
Animals All experimental procedures conformed to the guiding principles of the American Physiology Society, and were approved by Genentech's Institutional Animal Care and Use Committee. The animals used in this study were male Sprague/Dawley (SD) rats (8 weeks of age, Charles River Breeding Laboratories, Inc.). The animals were acclimated to the facility for at least one week before experiments, fed a pelleted rat chow and water ad libitum, and housed in a light and temperature controlled room.
Administration of fluprostenol and/or IFN-γ Rats received subcutaneous injection of fluprostenol (Cayman Chemical, Ann Arbor, Mich.) at 0.15 mg/kg, recombinant mouse IFN-γ (Genentech, Inc., South San Francisco, Calif.) at 0.08 mg/kg, combination of fluprostenol and IFN-γ, or saline vehicle, twice a day for 14 days. In the IFN-γ and fluprostenol+IFN-γ groups, animals were pretreated with IFN-γ for one day. Body weight was measured before and after treatment. A previous study has shown that the dose of fluprostenol used here is the lowest dose which produces a significant cardiac hypertrophy in rats. Lai et al., supra.
Measurement of organ weights Under anesthesia with ketamine/xylazine, the heart, kidney, and spleen were removed, dissected and weighed. The left ventricle was stored at […] for evaluation of gene expression.
Statistical analyisis Results are expressed as mean±SEM. One way analysis of variance (ANOVA) was performed to assess differences in parameters between groups. Significant differences were then subjected to post hoc analysis using Newman-Keuls method; P<0.05 was considered significant.

[4] = system: male Sprague/Dawley (SD) rats; experiment: Hemodynamic assessment (MAP) in rats treated with fluprostenol and/or IFN-γ; assay type: in vivo, rat; conditions: conscious rats, 14 days of treatment (FIG. 5)
Method: Hemodynamic assessment Thirteen days after treatment, rats were anesthetized with intraperitoreal injection of ketamine 80 mg/kg (Aveco Co., Inc., Fort Dodge, Iowa) and xylazine 10 mg/kg (Rugby Laboratories, Inc., Rockville Center, N.Y.). A catheter (PE-10 fused with PE 50) filled with heparin-saline solution (50 U/ml) was implanted into the abdominal aorta, via the right femoral artery, for measurement of mean arterial pressure (MAP) and heart rate (HR). The catheter was exteriorized and fixed at the back of the neck.
One day after catheterization, the arterial catheter was connected to a Model CP 10 pressure transducer (Century Technology Company, Inglewood, Calif., USA) that was coupled to a Grass Model 7 polygraph (Grass Instruments, Quincy, Mass., USA). MAP and HR were measured simultaneously in conscious, unrestrained rats.

[5] = system: left ventricle of male Sprague/Dawley (SD) rats; experiment: Cardiac gene expression (real-time RT-PCR) in rats treated with fluprostenol and/or IFN-γ; assay type: in vivo, rat; conditions: normalized to GAPDH, FIG. 6
Excerpt: FIGS. 6A–6D Bargraphs showing the effect of fluprostenol (FLUP) and IFN-γ on: A Skeletal actin (SKA); B Sarcoplasmic reticulum calcium ATPase (SRCA); C Collagen I (COL I); D Atrial natriuretic factor (ANF) expression. Expression levels are normalized to glyceraldehyde-3-phosphate dehydrogenase (GAPDH) message. VEH is vehicle. There were 7 animals per group and the data are presented as the mean±SEM. P<0.05 vs VEH group.
RNA preparation Total RNA was isolated using RNeasy Maxi Columns (Qïägen) according to the manufacturer's instructions.
RT-PCR Real-time RT-PCR (TaqMan) technology was used to compare the gene expression between the various treatment groups. An oligonucleotide probe containing a fluorescent reporter dye, […], at the 3′-end was designed to hybridize to the amplicon defined by two PCR primers. A 3′-blocking phosphate prevents extension of the probe. The reporter dye is released from the probe by the 5′ exonuclease activity of Taq polymerase during the extension phase of PCR reaction. […] The threshold cycle number (Ct), defined as the point where the reporter fluorescence reaches a value greater than 10 times the standard deviation of the baseline, is […] to the amount of amplicon produced from the sample. Since the fluorescence is detected during the exponential phase of the amplification, none of the reaction components are limiting. In each experiment, a control is analyzed that lacks the RNA template to monitor for contamination, and another control is included where the RT step is omitted to eliminate amplification of possible contaminating DNA as the source of the signal. Reactions are optimized to give the greatest fluorescence signal and smallest Ct by titration of magnesium and primer concentrations, and the product is run on an agarose gel to verify the presence of a single band at the predicted molecular weight. […]
Quantitation of the TaqMan results was performed as described by Heid et al., Genome Res. 6:986–994 (1996), with modifications. […]

[6] = s.c. twice a day for 14 days, fluprostenol 0.15 mg/kg, IFN-γ 0.08 mg/kg, mean ± SEM

TNF-α
Ability of other cytokines to inhibit PGF2α induced myocyte spreading [1]: could not inhibit the spreading response

IFN-α
Ability of other cytokines to inhibit PGF2α induced myocyte spreading [1]: could not inhibit the spreading response

O=C(O)CCC/C=C\C[C@@H]1[C@@H](/C=C/[C@@H](O)COc2cccc(C(F)(F)F)c2)[C@H](O)C[C@@H]1O (racemic) [fluprostenol, reference compound]
Lowest dose which produces a significant cardiac hypertrophy in rats [2]: 0.15 mg/kg | Ratio of heart, ventricular, and left ventricular weights to body weight (FIG. 4) ([3]; 14 days, fluprostenol and IFN-γ alone vs vehicle, fluprostenol+IFN-γ vs fluprostenol group): significant increase | BWO, basal levels of body weight ([3]; before treatment, mean ± SEM): 292.3 ± 2.2 g | BW, body weight post treatment [3, 6]: 381.1 ± 4.4 g | HW, heart weight [3, 6]: 1.000 ± .018 g | KW, kidney weight [3, 6]: 1.397 ± .038 g | KW/BW, kidney weight to body weight [3, 6]: 3.632 ± .076 g/kg | LVW, left ventricular weight [3, 6]: .740 ± .013 g | SW, spleen weight [3, 6]: .880 ± .048 g | SW/BW, spleen weight to body weight [3, 6]: 2.309 ± .130 g/kg | VW, ventricular weight [3, 6]: .957 ± .017 g | ΔBW, BW-BWO [3, 6]: 91.9 ± 4.0 g | Mean arterial pressure (MAP) compared to vehicle [4]: significant decline | Abundance of mRNA for α-skeletal actin, collagen I, and natriuretic factor in the heart vs vehicle [5]: increase in the abundance of mRNA | mRNA for sarcoplasmic reticulum calcium ATPase in the heart vs vehicle [5]: significantly reduced

IL-6: other cytokine tested for inhibition of the spreading response
Ability of other cytokines to inhibit PGF2α induced myocyte spreading [1]: could not inhibit the spreading response

prostaglandin F2α [PGF2α]
Spreading response of adult myocytes (maximum cell breadth) vs control cells ([1]; 0.1 μM, P<0.001): induced a significant change in the maximum cell breadth

IL-1β: other cytokine tested for inhibition of the spreading response
Ability of other cytokines to inhibit PGF2α induced myocyte spreading [1]: could not inhibit the spreading response

B1: IL-1α: other cytokine tested for inhibition of the spreading response (protein, UniProt P01583 113-271, looked up)
Interleukin-1 alpha: SAPFSFLSNVKYNFMRIIKYEFILNDALNQSIIRANDQYLTAAALHNLDEAVKFDMGAYKSSKDDAKITVILRISKTQLYVTAQDEDQPVLLKEMPEIPKTITGSETNLLFFWETHGTKNYFTSVAHPNLFIATKQDYWVCLAGGPPSITDFQILENQA
Ability of other cytokines to inhibit PGF2α induced myocyte spreading [1]: could not inhibit the spreading response
